Data as given in PubChem BioAssay AID248 (DTP/NCI, 2004).
Several values for one entry are separate records, joined by “and”; a condition that tells them apart may be missing. Identical values can stand only once. Toxic doses and inconclusive results are not listed.

Test system: L1210 leukemia ip in BDF1 mice, survival T/C
Assay: NCI In Vivo Anticancer Drug Screen. Data for tumor model L1210 Leukemia (intraperitoneal) in B6D2F1 (BDF1) mice
Conditions: endpoint: mean survival time, higher = longer survival
Outline: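 Survival endpoint. Drug-treated group vs vehicle group, expressed as T divided by C. Tumor passaged by transplantation.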

[1] = dose: 100.0 mg/kg/injection, schedule: Q01DX001 (ip), vehicle: saline
[2] = dose: 200.0 mg/kg/injection, schedule: Q01DX001 (ip), vehicle: saline
[3] = dose: 400.0 mg/kg/injection, schedule: Q01DX001 (ip), vehicle: saline
[4] = dose: 100.0 mg/kg/injection, schedule: Q04DX003 (ip), vehicle: saline with Tween-80
[5] = dose: 200.0 mg/kg/injection, schedule: Q04DX003 (ip), vehicle: saline with Tween-80
[6] = dose: 400.0 mg/kg/injection, schedule: Q04DX003 (ip), vehicle: saline with Tween-80

Cc1ccnc(NC(c2ccccc2)c2ccc3cccnc3c2O)c1 (configuration not stated)
T/C [1]: 103 % of control | T/C [2]: 95 % of control | T/C [3]: 86 % of control

Cc1c(Cl)ccc2c(=O)c(C(=O)O)c[nH]c12
T/C (dose: 100.0 mg/kg/injection, schedule: Q04DX003 (ip), vehicle: Klucel (hydroxypropylcellulose) (HPC)): 95 % of control | T/C (dose: 200.0 mg/kg/injection, schedule: Q04DX003 (ip), vehicle: Klucel (hydroxypropylcellulose) (HPC)): 103 % of control | T/C (dose: 400.0 mg/kg/injection, schedule: Q04DX003 (ip), vehicle: Klucel (hydroxypropylcellulose) (HPC)): 97 % of control

CC(=O)OC1=CC(=O)C(OC(C)=O)=C(c2c(C)cc(C)c(Br)c2C)C1=O
T/C (dose: 50.0 mg/kg/injection, schedule: Q01DX001 (ip), vehicle: saline): 91 % of control | T/C [1]: 95 % of control | T/C [2]: 101 % of control

CNC(CCC(=O)O)C(=O)O (configuration not stated)
T/C [1]: 89 % of control | T/C [2]: 96 % of control | T/C [3]: 91 % of control

OC(COC(c1ccccc1)(c1ccccc1)c1ccccc1)C(O)CC1SCCS1 (configuration not stated)
T/C (dose: 50.0 mg/kg/injection, schedule: Q01DX001 (ip), vehicle: carboxymethylcellulose (CMC)): 105 % of control | T/C (dose: 100.0 mg/kg/injection, schedule: Q01DX001 (ip), vehicle: carboxymethylcellulose (CMC)): 105 % of control | T/C (dose: 200.0 mg/kg/injection, schedule: Q01DX001 (ip), vehicle: carboxymethylcellulose (CMC)): 94 % of control | T/C (dose: 400.0 mg/kg/injection, schedule: Q01DX001 (ip), vehicle: carboxymethylcellulose (CMC)): 100 % of control

CC(C)Oc1ccc(CC(N)C(=O)O)cc1N(CCCl)CCCl (configuration not stated)
T/C (dose: 0.44 mg/kg/injection, schedule: Q01DX009 (ip), vehicle: carboxymethylcellulose (CMC)): 108 % of control | T/C (dose: 0.5 mg/kg/injection, schedule: Q01DX009 (ip), vehicle: saline): 120 % of control | T/C (dose: 0.6 mg/kg/injection, schedule: Q01DX009 (ip), vehicle: carboxymethylcellulose (CMC)): 121 % of control | T/C (dose: 0.66 mg/kg/injection, schedule: Q01DX009 (ip), vehicle: carboxymethylcellulose (CMC)): 111 % of control | T/C (dose: 1.0 mg/kg/injection, schedule: Q01DX009 (ip), vehicle: carboxymethylcellulose (CMC)): 124 % of control | T/C (dose: 1.0 mg/kg/injection, schedule: Q01DX009 (ip), vehicle: saline): 114 % of control | T/C (dose: 1.5 mg/kg/injection, schedule: Q01DX001 (ip), vehicle: carboxymethylcellulose (CMC)): 108 % of control | T/C (dose: 2.0 mg/kg/injection, schedule: Q01DX009 (ip), vehicle: saline): 117 % of control | T/C (dose: 2.2 mg/kg/injection, schedule: Q01DX001 (ip), vehicle: carboxymethylcellulose (CMC)): 114 % of control | T/C (dose: 3.3 mg/kg/injection, schedule: Q01DX001 (ip), vehicle: carboxymethylcellulose (CMC)): 119 % of control | T/C (dose: 3.3 mg/kg/injection, schedule: Q01DX009 (ip), vehicle: carboxymethylcellulose (CMC)): 158 % of control | T/C (dose: 5.0 mg/kg/injection, schedule: Q01DX001 (ip), vehicle: carboxymethylcellulose (CMC)): 114 % of control | T/C (dose: 5.0 mg/kg/injection, schedule: Q01DX001 (ip), vehicle: saline with Tween-80): 116 % of control | T/C (dose: 5.0 mg/kg/injection, schedule: Q01DX009 (ip), vehicle: carboxymethylcellulose (CMC)): 164 % of control and 166 % of control | T/C (dose: 7.5 mg/kg/injection, schedule: Q01DX001 (ip), vehicle: saline with Tween-80): 116 % of control | T/C (dose: 7.5 mg/kg/injection, schedule: Q01DX009 (ip), vehicle: carboxymethylcellulose (CMC)): 205 % of control | T/C (dose: 10.0 mg/kg/injection, schedule: Q01DX001 (ip), vehicle: saline with Tween-80): 116 % of control | T/C (dose: 10.0 mg/kg/injection, schedule: Q01DX009 (ip), vehicle: carboxymethylcellulose (CMC)): 213 % of control | T/C (dose: 15.0 mg/kg/injection, schedule: Q01DX001 (ip), vehicle: carboxymethylcellulose (CMC)): 124 % of control | T/C (dose: 15.0 mg/kg/injection, schedule: Q01DX009 (ip), vehicle: carboxymethylcellulose (CMC)): 123 % of control | T/C (dose: 25.0 mg/kg/injection, schedule: Q01DX001 (ip), vehicle: Klucel (hydroxypropylcellulose) (HPC)): 177 % of control | T/C (dose: 30.0 mg/kg/injection, schedule: Q01DX009 (ip), vehicle: saline): 90 % of control

CN(C)c1ncnc2c1nnn2C1OC(CO)C(O)C1O (configuration not stated)
T/C (dose: 178.0 mg/kg/injection, schedule: Q01DX001 (ip), vehicle: saline): 106 % of control | T/C (dose: 267.0 mg/kg/injection, schedule: Q01DX001 (ip), vehicle: saline): 106 % of control | T/C [3]: 117 % of control

COc1ccc(Sc2cccc3c2C(=O)c2c(Sc4ccc(OC)cc4)cccc2C3=O)cc1
T/C [4]: 91 % of control | T/C [5]: 96 % of control | T/C [6]: 87 % of control

COc1cccc(-c2cc3c(OC)ccc(OC)c3[nH]2)c1
T/C (dose: 100.0 mg/kg/injection, schedule: Q04DX002 (ip), vehicle: Klucel (hydroxypropylcellulose) (HPC)): 99 % of control | T/C (dose: 200.0 mg/kg/injection, schedule: Q04DX002 (ip), vehicle: Klucel (hydroxypropylcellulose) (HPC)): 89 % of control | T/C (dose: 400.0 mg/kg/injection, schedule: Q04DX002 (ip), vehicle: Klucel (hydroxypropylcellulose) (HPC)): 99 % of control

Oc1ccccc1C=Nc1ccccc1S.[Cu+2]
T/C (dose: 100.0 mg/kg/injection, schedule: Q01DX001 (ip), vehicle: other): 97 % of control | T/C (dose: 200.0 mg/kg/injection, schedule: Q01DX001 (ip), vehicle: other): 94 % of control | T/C (dose: 400.0 mg/kg/injection, schedule: Q01DX001 (ip), vehicle: other): 96 % of control

O=[N+]([O-])c1ccc(-c2nc3c(o2)CCC3)cc1
T/C [4]: 98 % of control | T/C [5]: 105 % of control | T/C [6]: 96 % of control

CCCCCCCSc1ccc(C(=O)O)cc1
T/C (dose: 37.5 mg/kg/injection, schedule: Q01DX009 (ip), vehicle: saline): 91 % of control | T/C (dose: 75.0 mg/kg/injection, schedule: Q01DX001 (ip), vehicle: acetone): 102 % of control | T/C (dose: 75.0 mg/kg/injection, schedule: Q01DX009 (ip), vehicle: saline): 97 % of control | T/C (dose: 75.0 mg/kg/injection, schedule: Q04DX003 (ip), vehicle: acetone): 102 % of control | T/C (dose: 150.0 mg/kg/injection, schedule: Q01DX001 (ip), vehicle: acetone): 95 % of control | T/C (dose: 150.0 mg/kg/injection, schedule: Q01DX009 (ip), vehicle: saline): 90 % of control | T/C (dose: 150.0 mg/kg/injection, schedule: Q04DX003 (ip), vehicle: acetone): 102 % of control | T/C (dose: 300.0 mg/kg/injection, schedule: Q01DX001 (ip), vehicle: acetone): 98 % of control | T/C (dose: 300.0 mg/kg/injection, schedule: Q04DX003 (ip), vehicle: acetone): 102 % of control

CC1CCCC(CN=Cc2ccc(O)cc2O)[N-]1.CC1CCCC(CN=Cc2ccc(O)cc2O)[N-]1.[Ni+2] (configuration not stated)
T/C (dose: 25.0 mg/kg/injection, schedule: Q04DX003 (ip), vehicle: saline with Tween-80): 101 % of control | T/C (dose: 50.0 mg/kg/injection, schedule: Q04DX003 (ip), vehicle: saline with Tween-80): 103 % of control | T/C [4]: 98 % of control

NC(N)=N/N=C/c1ccccc1O
T/C (dose: 15.0 mg/kg/injection, schedule: Q01DX Z (ip), vehicle: saline): 98 % of control and 91 % of control | T/C (dose: 31.0 mg/kg/injection, schedule: Q01DX Z (ip), vehicle: saline): 87 % of control and 91 % of control | T/C (dose: 63.0 mg/kg/injection, schedule: Q01DX Z (ip), vehicle: saline): 87 % of control | T/C (dose: 125.0 mg/kg/injection, schedule: Q01DX Z (ip), vehicle: saline): 87 % of control

O=C1C=CC(=O)N1c1ccccc1[N+](=O)[O-]
T/C (dose: 1.5 mg/kg/injection, schedule: Q01DX009 (ip), vehicle: Klucel (hydroxypropylcellulose) (HPC)): 97 % of control | T/C (dose: 3.0 mg/kg/injection, schedule: Q01DX009 (ip), vehicle: Klucel (hydroxypropylcellulose) (HPC)): 103 % of control | T/C (dose: 6.0 mg/kg/injection, schedule: Q01DX009 (ip), vehicle: Klucel (hydroxypropylcellulose) (HPC)): 94 % of control

Clc1ccc2n[nH]c(Cl)c2c1
T/C (dose: 12.5 mg/kg/injection, schedule: Q01DX009 (ip), vehicle: saline): 95 % of control | T/C (dose: 25.0 mg/kg/injection, schedule: Q01DX009 (ip), vehicle: saline): 101 % of control | T/C (dose: 50.0 mg/kg/injection, schedule: Q01DX009 (ip), vehicle: saline): 98 % of control | T/C [1]: 92 % of control | T/C (dose: 100.0 mg/kg/injection, schedule: Q01DX009 (ip), vehicle: saline): 96 % of control | T/C [2]: 92 % of control | T/C [3]: 102 % of control

O=C1c2ccccc2C(=O)N1NS(=O)c1ccccc1 (configuration not stated)
T/C (dose: 100.0 mg/kg/injection, schedule: Q04DX002 (ip), vehicle: saline with Tween-80): 93 % of control | T/C (dose: 200.0 mg/kg/injection, schedule: Q04DX002 (ip), vehicle: saline with Tween-80): 104 % of control | T/C (dose: 400.0 mg/kg/injection, schedule: Q04DX002 (ip), vehicle: saline with Tween-80): 101 % of control
